Data as given in ChEMBL document CHEMBL5137080, “Discovery of Novel 7-Hydroxy-5-oxo-4,5-dihydrothieno[3,2-b]pyridine-6-carboxamide Derivatives with Potent and Selective Antifungal Activity against Cryptococcus Species” (J Med Chem, 2022).
In brackets after ≈: the same amount, converted by molar mass.

Legend:
[1] = test system: Candida albicans; assay: Antifungal activity against Candida albicans SC5314 assessed as fungal growth inhibition incubated for 48 hrs by broth microdilution method; type: functional
[2] = test system: Aspergillus fumigatus; assay: Antifungal activity against Aspergillus fumigatus 7544 assessed as fungal growth inhibition incubated for 48 hrs by broth microdilution method; type: functional
[3] = test system: Cryptococcus neoformans; assay: Antifungal activity against Cryptococcus neoformans H99 assessed as fungal growth inhibition incubated for 72 hrs by broth microdilution method; type: functional
[4] = Cytotoxicity against human HUVEC cells assessed as inhibition on cell growth incubated for 24 hrs by CCK-8 assay; type: toxicity, cell-based
[5] = Cytotoxicity against human HUVEC cells assessed as cell viability at 64 ug/ml incubated for 24 hrs by CCK-8 assay; type: toxicity, cell-based; settings: at 64 µg/mL, read-out: Activity
[6] = Cytotoxicity against human Caco-2 cells assessed as cell viability at 64 ug/ml incubated for 24 hrs by CCK-8 assay; type: toxicity, cell-based; settings: at 64 µg/mL, read-out: Activity
[7] = Cytotoxicity against human HUVEC cells assessed as cell viability at 256 ug/ml incubated for 24 hrs by CCK-8 assay; type: toxicity, cell-based; settings: at 256 µg/mL, read-out: Activity
[8] = Cytotoxicity against human Caco-2 cells assessed as cell viability at 256 ug/ml incubated for 24 hrs by CCK-8 assay; type: toxicity, cell-based; settings: at 256 µg/mL, read-out: Activity
[9] = Hemolytic activity in rabbit RBC at 16 ug/ml incubated for 1 hr by spectrophotometry; type: toxicity, cell-based, Oryctolagus cuniculus, Erythrocyte; settings: red blood cells, at 16 µg/mL, read-out: Activity
[10] = Hemolytic activity in rabbit RBC at 32 ug/ml incubated for 1 hr by spectrophotometry; type: toxicity, cell-based, Oryctolagus cuniculus, Erythrocyte; settings: red blood cells, at 32 µg/mL, read-out: Activity
[11] = Hemolytic activity in rabbit RBC at 64 ug/ml incubated for 1 hr by spectrophotometry; type: toxicity, cell-based, Oryctolagus cuniculus, Erythrocyte; settings: red blood cells, at 64 µg/mL, read-out: Activity

| SMILES | MIC [1] | MIC [2] | MIC [3] | IC50 at 24 h [4] | other results |
| --- | --- | --- | --- | --- | --- |
| Cc1ccc(CNC(=O)c2c(O)c3sccc3n(Cc3ccccc3)c2=O)cc1C | > 64 µg/mL | > 64 µg/mL | 2 µg/mL (≈ 4.78 µM) | – | – |
| COc1cccc(CNC(=O)c2c(O)c3sccc3n(Cc3ccccc3)c2=O)c1 | > 64 µg/mL | > 64 µg/mL | 2 µg/mL (≈ 4.76 µM) | – | – |
| O=C(NCCc1c[nH]c2ccccc12)c1c(O)c2sccc2n(Cc2ccccc2)c1=O | > 64 µg/mL | > 64 µg/mL | 8 µg/mL (≈ 18 µM) | – | – |
| O=C(NCC1CCCO1)c1c(O)c2sccc2n(Cc2ccccc2)c1=O (stereo not drawn) | 32 µg/mL (≈ 83.2 µM) | 16 µg/mL (≈ 41.6 µM) | 4 µg/mL (≈ 10.4 µM) | – | – |
| CCCNC(=O)c1c(O)c2sccc2n(Cc2ccccc2)c1=O | > 64 µg/mL | > 64 µg/mL | 2 µg/mL (≈ 5.84 µM) | > 64 µg/mL | – |
| CCCCCNC(=O)c1c(O)c2sccc2n(Cc2ccccc2)c1=O | > 64 µg/mL | > 64 µg/mL | 0.5 µg/mL (≈ 1.35 µM) | > 64 µg/mL | – |
| Cc1ccc(CNC(=O)c2c(O)c3sccc3n(Cc3ccccc3)c2=O)o1 | > 64 µg/mL | > 64 µg/mL | 2 µg/mL (≈ 5.07 µM) | – | – |
| CC(C)CNC(=O)c1c(O)c2sccc2n(Cc2ccccc2)c1=O | > 64 µg/mL | > 64 µg/mL | 16 µg/mL (≈ 44.9 µM) | – | – |
| CSc1ccc(CNC(=O)c2c(O)c3sccc3n(Cc3ccccc3)c2=O)cc1 | > 64 µg/mL | > 64 µg/mL | 2 µg/mL (≈ 4.58 µM) | – | – |
| CCC(C)NC(=O)c1c(O)c2sccc2n(Cc2ccccc2)c1=O (stereo not drawn) | > 64 µg/mL | 64 µg/mL (≈ 180 µM) | 4 µg/mL (≈ 11.2 µM) | – | – |
| O=C(NCCc1cccs1)c1c(O)c2sccc2n(Cc2ccccc2)c1=O | > 64 µg/mL | > 64 µg/mL | 2 µg/mL (≈ 4.87 µM) | – | – |
| O=C(NCc1ccncc1)c1c(O)c2sccc2n(Cc2ccccc2)c1=O | 64 µg/mL (≈ 163 µM) | 8 µg/mL (≈ 20.4 µM) | 2 µg/mL (≈ 5.11 µM) | – | – |
| CCOCCNC(=O)c1c(O)c2sccc2n(Cc2ccccc2)c1=O | > 64 µg/mL | 16 µg/mL (≈ 43 µM) | 0.5 µg/mL (≈ 1.34 µM) | 8 µg/mL (≈ 21.5 µM) | – |
| CC(NC(=O)c1c(O)c2sccc2n(Cc2ccccc2)c1=O)c1ccc(F)cc1 (stereo not drawn) | > 64 µg/mL | > 64 µg/mL | 2 µg/mL (≈ 4.73 µM) | – | – |
| CCCCCCNC(=O)c1c(O)c2sccc2n(Cc2ccccc2)c1=O | > 64 µg/mL | > 64 µg/mL | 0.5 µg/mL (≈ 1.3 µM) | > 64 µg/mL | – |
| O=C(NN1CCOCC1)c1c(O)c2sccc2n(Cc2ccccc2)c1=O | > 64 µg/mL | > 64 µg/mL | > 64 µg/mL | > 64 µg/mL | – |
| O=C(NCCN1CCOCC1)c1c(O)c2sccc2n(Cc2ccccc2)c1=O | 32 µg/mL (≈ 77.4 µM) | 64 µg/mL (≈ 155 µM) | 8 µg/mL (≈ 19.3 µM) | – | – |
| CC1CCN(CCNC(=O)c2c(O)c3sccc3n(Cc3ccccc3)c2=O)CC1 | 32 µg/mL (≈ 75.2 µM) | 32 µg/mL (≈ 75.2 µM) | 32 µg/mL (≈ 75.2 µM) | – | – |
| O=C(NCc1cccc(Cl)c1)c1c(O)c2sccc2n(Cc2ccccc2)c1=O | > 64 µg/mL | > 64 µg/mL | 2 µg/mL (≈ 4.71 µM) | – | – |
| O=C(NCCO)c1c(O)c2sccc2n(Cc2ccccc2)c1=O | > 64 µg/mL | 32 µg/mL (≈ 92.9 µM) | 8 µg/mL (≈ 23.2 µM) | 64 µg/mL (≈ 186 µM) | – |
| O=C(Nc1ccccc1)c1c(O)c2sccc2n(Cc2ccccc2)c1=O | > 64 µg/mL | > 64 µg/mL | > 64 µg/mL | – | – |
| O=C(NCc1cccs1)c1c(O)c2sccc2n(Cc2ccccc2)c1=O | > 64 µg/mL | > 64 µg/mL | 2 µg/mL (≈ 5.04 µM) | – | – |
| C[C@@H]1[C@H](O)[C@@H](C)/C=C/C=C/C=C/C=C/C=C/C=C/C=C/[C@H](O[C@@H]2O[C@H](C)[C@@H](O)[C@H](N)[C@@H]2O)C[C@@H]2O[C@](O)(C[C@@H](O)C[C@@H](O)[C@H](O)CC[C@@H](O)C[C@@H](O)CC(=O)O[C@H]1C)C[C@H](O)[C@H]2C(=O)O [AMPHOTERICIN B] | 0.125 µg/mL (≈ 0.135 µM) | 2 µg/mL (≈ 2.16 µM) | 1 µg/mL (≈ 1.08 µM) | 16 µg/mL (≈ 17.3 µM) | viability at 24 h, 64 ug/ml [5]: 68.2%; viability at 24 h, 64 ug/ml [6]: 64.8%; viability at 24 h, 256 ug/ml [7]: 13.7%; viability at 24 h, 256 ug/ml [8]: 28.7%; hemolysis at 1 h, 16 ug/ml [9]: 8.06%; hemolysis at 1 h, 32 ug/ml [10]: > 95%; hemolysis at 1 h, 64 ug/ml [11]: 100% |

| SMILES | MIC [1] | MIC [2] | MIC [3] | IC50 at 24 h [4] | other results |
| --- | --- | --- | --- | --- | --- |
| Cc1ccccc1CNC(=O)c1c(O)c2sccc2n(Cc2ccccc2)c1=O | > 64 µg/mL | > 64 µg/mL | 2 µg/mL (≈ 4.94 µM) | – | – |
| COCCNC(=O)c1c(O)c2sccc2n(Cc2ccccc2)c1=O | > 64 µg/mL | 32 µg/mL (≈ 89.3 µM) | 2 µg/mL (≈ 5.58 µM) | 16 µg/mL (≈ 44.6 µM) | – |
| O=C(NCc1ccc(Cl)cc1)c1c(O)c2sccc2n(Cc2ccccc2)c1=O | > 64 µg/mL | > 64 µg/mL | 1 µg/mL (≈ 2.35 µM) | – | – |
| O=C(NCCCCO)c1c(O)c2sccc2n(Cc2ccccc2)c1=O | > 64 µg/mL | 32 µg/mL (≈ 85.9 µM) | 2 µg/mL (≈ 5.37 µM) | 16 µg/mL (≈ 43 µM) | – |
| C#CCNC(=O)c1c(O)c2sccc2n(Cc2ccccc2)c1=O | > 64 µg/mL | > 64 µg/mL | 16 µg/mL (≈ 47.3 µM) | > 64 µg/mL | – |
| COc1ccc(CNC(=O)c2c(O)c3sccc3n(Cc3ccccc3)c2=O)cc1 | > 64 µg/mL | > 64 µg/mL | 2 µg/mL (≈ 4.76 µM) | – | – |
| O=C(NCCCO)c1c(O)c2sccc2n(Cc2ccccc2)c1=O | > 64 µg/mL | 32 µg/mL (≈ 89.3 µM) | 4 µg/mL (≈ 11.2 µM) | 64 µg/mL (≈ 179 µM) | – |
| CC(C)NC(=O)c1c(O)c2sccc2n(Cc2ccccc2)c1=O | > 64 µg/mL | > 64 µg/mL | 2 µg/mL (≈ 5.84 µM) | > 64 µg/mL | – |
| O=C(NC1CCCC1)c1c(O)c2sccc2n(Cc2ccccc2)c1=O | > 64 µg/mL | > 64 µg/mL | 4 µg/mL (≈ 10.9 µM) | > 64 µg/mL | – |
| C=CCCNC(=O)c1c(O)c2sccc2n(Cc2ccccc2)c1=O | > 64 µg/mL | > 64 µg/mL | 0.25 µg/mL (≈ 0.705 µM) | > 64 µg/mL | – |
| O=C(NCc1ccccc1Cl)c1c(O)c2sccc2n(Cc2ccccc2)c1=O | > 64 µg/mL | > 64 µg/mL | 2 µg/mL (≈ 4.71 µM) | – | – |
| O=C(NC1CCCCC1)c1c(O)c2sccc2n(Cc2ccccc2)c1=O | > 64 µg/mL | > 64 µg/mL | 8 µg/mL (≈ 20.9 µM) | > 64 µg/mL | – |
| O=C(NN1CCCCC1)c1c(O)c2sccc2n(Cc2ccccc2)c1=O | > 64 µg/mL | > 64 µg/mL | 16 µg/mL (≈ 41.7 µM) | > 64 µg/mL | – |
| O=C(NCc1ccccn1)c1c(O)c2sccc2n(Cc2ccccc2)c1=O | > 64 µg/mL | 16 µg/mL (≈ 40.9 µM) | 2 µg/mL (≈ 5.11 µM) | – | – |
| CN(C)c1ccc(CNC(=O)c2c(O)c3sccc3n(Cc3ccccc3)c2=O)cc1 | > 64 µg/mL | > 64 µg/mL | 4 µg/mL (≈ 9.23 µM) | – | – |
| O=C(NCc1ccccc1F)c1c(O)c2sccc2n(Cc2ccccc2)c1=O | > 64 µg/mL | > 64 µg/mL | 2 µg/mL (≈ 4.9 µM) | – | – |
| CC(NC(=O)c1c(O)c2sccc2n(Cc2ccccc2)c1=O)c1ccccc1 (stereo not drawn) | > 64 µg/mL | > 64 µg/mL | 4 µg/mL (≈ 9.89 µM) | – | – |
| O=C(NCc1ccc(F)cc1)c1c(O)c2sccc2n(Cc2ccccc2)c1=O | > 64 µg/mL | > 64 µg/mL | 4 µg/mL (≈ 9.79 µM) | – | – |
| O=C(NCC1CC1)c1c(O)c2sccc2n(Cc2ccccc2)c1=O | > 64 µg/mL | > 64 µg/mL | 1 µg/mL (≈ 2.82 µM) | – | – |
| O=C(NCCc1ccccc1)c1c(O)c2sccc2n(Cc2ccccc2)c1=O | > 64 µg/mL | > 64 µg/mL | 4 µg/mL (≈ 9.89 µM) | – | – |
| O=C(NCc1ccc(F)cc1F)c1c(O)c2sccc2n(Cc2ccccc2)c1=O | > 64 µg/mL | > 64 µg/mL | 2 µg/mL (≈ 4.69 µM) | – | – |
| O=C(NCc1cc(F)cc(F)c1)c1c(O)c2sccc2n(Cc2ccccc2)c1=O | > 64 µg/mL | > 64 µg/mL | 2 µg/mL (≈ 4.69 µM) | – | – |
